{
  "source": "patent US20250325524A1",
  "about": "“COMPOSITIONS AND METHODS FOR TREATING RENAL INJURY” (CASE WESTERN RESERVE UNIVERSITY, priority 2018, published 2025)",
  "key": {"[1]": {"system": "mice with ischemic AKI", "experiment": "renal IRI model: necrotic and apoptotic cell death in the outer medulla", "type": "in vivo", "description": "(§1) Mice were anesthetized with isoflurane using a vaporizer and placed on a heating pad to maintain their body temperature at 37° C. Both renal arteries were identified through dorsal incisions and clamped for 20, 30, 35, or 37 minutes. Reperfusion was confirmed visually upon release of the clamps. Surgical wounds were closed, and mice were administered 1 mL of saline i.p. The mice were kept in a warm incubator until they regained consciousness and were allowed to recover with ad libitum access to food and water. […] Serum and kidney tissue were collected 24 hours after renal IRI.\nTo evaluate necrosis, 5-μm-thick paraffin sections were stained with H&E. Tubular injury was scored semi quantitatively according to a scoring system by a pathologist who examined at least 20 separate fields (×400) in the outer medulla, which is the zone most sensitive to ischemic injury. The scoring system was as follows: 0, no damage; 1, patchy isolated unicellular necrosis; 2, tubular necrosis <25%; 3, tubular necrosis 25-50%; and 4, tubular necrosis >50%. At least 20 consecutive high-power fields (magnification, ×400) per section were scored by two operators blind to the details of the experiment. To analyze the frequency of apoptosis, 5-μm-thick paraffin sections were subjected to terminal deoxynucleotidyl transferase-mediated dUTP nick-end labeling (TUNEL) assay (APT110; Millipore) according to the manufacturer's protocol. TUNEL-positive cells were counted in at least five separate fields (×640 magnification) in the outer medulla, and the apoptosis index (%, number of apoptosis cells/total number of cells) was calculated using GENASIS software."}, "[2]": {"system": "HMGB1 and proinflammatory cytokines", "experiment": "renal IRI model: HMGB1 and cytokine levels", "type": "in vivo", "details": "mice", "description": "as §1\nInflammatory cytokine mRNA and protein levels were measured by real-time PCR and ELISA, respectively. Kidney tissue and serum were harvested after reperfusion for 24 h. Total RNA was extracted from frozen kidney tissue using TRIzol reagent (15596018; Invitrogen), according to the manufacturer's protocol. RNA was converted to cDNA using oligo-dT primers. IL-17, TNF-α, and […] levels were determined by real-time PCR with SYBR green PCR Master Mix and the primers listed in Table 1. For ELISA, frozen kidney tissues were homogenized in phosphate buffer. Serum IL-17 (M1700; R&D Systems), TNF-α (MTAOOB; R&D Systems), and IL-10β (MLBOOC; R&D Systems) were measured using commercial ELISA kits according to the manufacturer's instructions."}, "[3]": {"details": "real-time PCR and ELISA, 3 doses 5 mg/kg"}, "[4]": {"details": "real-time PCR at POD1, vs IRI-vehicle"}},
  "note": "Entries after “also recorded” stand apart in the source; their conditions may differ.",
  "data": [
    {"smiles": "CCCC[S+]([O-])c1sc2nc(-c3cccs3)cc(-c3ccccc3)c2c1N", "note": "(centres unmarked) [SW033291]", "values": [
      {"measurement": "histologic renal injury score", "setting": "[1]; 3 doses 5 mg/kg i.p., POD1, H&E, outer medulla", "value": "reducing"},
      {"measurement": "count of TUNEL positive apoptotic cells", "setting": "[1]; 3 doses 5 mg/kg i.p., POD1, outer medulla", "value": "reducing"},
      {"measurement": "tissue congestion in the outer medulla (gross pathology)", "setting": "[1]; 3 doses 5 mg/kg i.p., POD1, vs IRI-vehicle", "value": "ameliorated"},
      {"measurement": "renal injury (histopathology, tubular injury)", "setting": "[1]; 3 doses 5 mg/kg, POD1, 5 mg/kg", "value": "markedly alleviated renal injury; also recorded: more effective than systemic administration of either exogenous PGE1 or PGE2"},
      {"measurement": "IL-1B protein", "setting": "[2]; ELISA, 3 doses 5 mg/kg", "value": "reductions"},
      {"measurement": "reduction of HMGB1 protein level compared to the IRI-vehicle group", "setting": "[2]; kidney tissue, western blot, 3 doses 5 mg/kg", "value": 30, "unit": "%"},
      {"measurement": "induction of IL-17", "setting": "[2]; [3]", "value": "blockade of induction"},
      {"measurement": "induction of TNF-α", "setting": "[2]; [3]", "value": "blockade of induction"},
      {"measurement": "IL-24 mRNA", "setting": "[2]; [4]", "value": "significantly induces"},
      {"measurement": "anti-inflammatory cytokine IL-4 mRNA", "setting": "[2]; [4]", "value": "significantly induces"},
      {"measurement": "anti-inflammatory cytokine IL-10 mRNA", "setting": "[2]; [4]", "value": "significantly induces"}
    ]}
  ]
}
